Measured values from patent US5696151A, “Compounds useful for the inhibition of the replication of HIV-1 and HIV-1 mutants” (priority 1995, dated 1997).
In brackets after ≈: the same amount, converted by molar mass.

How the values were obtained:
Type in all cases: cell-based
[1] = test system: HIV-1/188-Leu; assay: Inhibition of HIV-1 induced syncytium formation in CEM cells, RT mutant 188-Leu; details: Human immunodeficiency virus 1, CCRF-CEM, 96 h, Table 2B, day 4, averages of 2 to 3 independent experiments, read-out: Antiviral Activity of Comparative Compounds EC50, 188-Leu
From the text: (§1) CEM cells were obtained from the American Tissue Cell Culture Collection (Rockville, Md.). HIV-1(IIIB) was originally obtained from the culture supernatant of persistently HIV-1-infected H9 cells and was provided by R. C. Gallo and M. Popovic (National Cancer Institute, National Institutes of Health, Bethesda, Md.). […] 67: 5353-5359 (1993); HIV-1/Lys-138 ("Lys-138") was selected for resistance against TSAO-m^3T as described in Balzarini et al, Virology 192: 246-253 (1993) and Balzarini et al, Proc. Nat. Acad. Sci. USA 90: 6952-6956 (1993); HIV-1/181-Cys ("181-Cys") was selected for resistance against pyridinone L-697,661 as described in Balzarini et al, Virology 192: 246-253 (1993); and HIV-1/188-His ("188-His") was selected for resistance against HEPT as described in Balzarini et al, Mol. Pharmocol. 44: 694-701 (1993). 188-His was then further converted to HIV-1/188-Leu "188-Leu") upon further passage in cell culture in the absence of the HEPT.
(§2) CEM cells were suspended at ≈300,000 cells per ml of culture medium and infected with approximately 100 CCID50 (CCID50 being the 50% cell culture infective dose) of HIV-1(IIIB) or one of the HIV-1 RT mutant strains described above. Then 100 μl of the infected cell suspensions was added to 200 μl microtiter plate wells containing 100 μl of appropriate serial (5-fold) dilutions of the test compounds. The inhibitory effect of the test compounds on HIV-1 induced syncytium formation in CEM cells was examined microscopically on day 4 post infection.

[2] = test system: HIV-1/100-Ile; assay: Inhibition of HIV-1 induced syncytium formation in CEM cells, RT mutant 100-Ile; details: Human immunodeficiency virus 1, CCRF-CEM, 96 h, Table 2B, day 4, averages of 2 to 3 independent experiments, read-out: Antiviral Activity of Comparative Compounds EC50, 100-Ile
Outline: (§3)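 Mutant strains were selected in culture for resistance to NNRTIs such as TSAO-m^3T, pyridinone L-697,661 or HEPT. Antiviral effect is inhibition of syncytium formation in infected CEM cells (~100 CCID50), assessed microscopically at day 4.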

[3] = test system: HIV-1/103-Asn; assay: Inhibition of HIV-1 induced syncytium formation in CEM cells, RT mutant 103-Asn; details: Human immunodeficiency virus 1, CCRF-CEM, 96 h, Table 2B, day 4, averages of 2 to 3 independent experiments, read-out: Antiviral Activity of Comparative Compounds EC50, 103-Asn
From the text: as §1, §2

[4] = test system: HIV-1/Lys-138; assay: Inhibition of HIV-1 induced syncytium formation in CEM cells, RT mutant 138-Lys; details: Human immunodeficiency virus 1, CCRF-CEM, 96 h, Table 2B, day 4, averages of 2 to 3 independent experiments, read-out: Antiviral Activity of Comparative Compounds EC50, 138-Lys
Outline: as §3

[5] = in vitro; details: human, cem cells, CC50 (50% cytostatic concentration), Table 2B; CEM cell proliferation; averages of 2 to 3 independent experiments
Outline: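 In CEM cells, the cytostatic value is the compound concentration giving 50% inhibition of cell proliferation. Parallel work used HIV-1(IIIB) and culture-selected resistant strains Lys-138, 181-Cys, 188-His and 188-Leu.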

[6] = test system: HIV-1/181-Cys; assay: Inhibition of HIV-1 induced syncytium formation in CEM cells, RT mutant 181-Cys; details: Human immunodeficiency virus 1, CCRF-CEM, 96 h, Table 2B, day 4, averages of 2 to 3 independent experiments, read-out: Antiviral Activity of Comparative Compounds EC50, 181-Cys
Outline: as §3

[7] = test system: HIV-1/106-Ala; assay: Inhibition of HIV-1 induced syncytium formation in CEM cells, RT mutant 106-Ala; details: Human immunodeficiency virus 1, CCRF-CEM, 96 h, Table 2B, day 4, averages of 2 to 3 independent experiments, read-out: Antiviral Activity of Comparative Compounds EC50, 106-Ala
Outline: as §3

[8] = test system: HIV-1(IIIB); assay: Inhibition of HIV-1 induced syncytium formation in CEM cells, wild type; details: Human immunodeficiency virus 1, IIIB, CCRF-CEM, 96 h, Table 2B, WT = HIV-1(IIIB), day 4, averages of 2 to 3 independent experiments, read-out: Antiviral Activity of Comparative Compounds EC50, WT
Outline: as §3

Row | Compound | EC50 [1] [µg/mL] | EC50 [2] [µg/mL] | EC50 [3] [µg/mL] | EC50 [4] [µg/mL] | CC50 [5] [µg/mL] | EC50 [6] [µg/mL] | EC50 [7] [µg/mL] | EC50 [8] [µg/mL]
1 | CCC1=C(C(=O)Nc2ccc(Cl)c(C(=O)OC3CCCCC3)c2)SCCO1 [Compound 13] | ≥ 2 | 0.26 (≈ 0.634 µM) | 0.38 (≈ 0.927 µM) | 0.25 (≈ 0.61 µM) | 11.4 (≈ 27.8 µM) | 0.07 (≈ 0.171 µM) | 0.17 (≈ 0.415 µM) | 0.08 (≈ 0.195 µM)
2 | Cc1occc1C(=S)Nc1ccc(Cl)c(SCC(=O)OC(C)(C)C)c1 [Compound 17] | ≥ 2 | 0.49 (≈ 1.23 µM) | 0.73 (≈ 1.83 µM) | 0.18 (≈ 0.452 µM) | 7 (≈ 17.6 µM) | 0.45 (≈ 1.13 µM) | 0.3 (≈ 0.754 µM) | 0.22 (≈ 0.553 µM)
3 | Cc1sccc1C(=S)Nc1ccc(Cl)c(OCC(=O)OC(C)(C)C)c1 [Compound 14] | > 2 | 0.16 (≈ 0.402 µM) | 0.12 (≈ 0.302 µM) | 0.24 (≈ 0.603 µM) | 2.1 (≈ 5.28 µM) | 0.087 (≈ 0.219 µM) | 0.1 (≈ 0.251 µM) | 0.067 (≈ 0.168 µM)
4 | CC=CCSc1cc(NC(=S)c2ccoc2C)ccc1Cl [Compound 6] | 1 (≈ 2.96 µM) | 0.037 (≈ 0.11 µM) | 0.03 (≈ 0.0888 µM) | 0.03 (≈ 0.0888 µM) | 4.7 (≈ 13.9 µM) | 0.045 (≈ 0.133 µM) | 0.018 (≈ 0.0533 µM) | 0.0041 (≈ 0.0121 µM)
5 | Cc1occc1C(=S)Nc1ccc(Cl)c(OC2CCCCC2)c1 [Compound 26] | > 2 | 0.33 (≈ 0.943 µM) | 0.33 (≈ 0.943 µM) | 0.5 (≈ 1.43 µM) | 5.3 (≈ 15.1 µM) | ≥ 2 | 0.09 (≈ 0.257 µM) | 0.033 (≈ 0.0943 µM)
6 | Cc1sccc1C(=S)Nc1ccc(Cl)c(OCCC(C)C)c1 [Compound 12] | > 2 | 0.035 (≈ 0.0989 µM) | 0.035 (≈ 0.0989 µM) | 0.035 (≈ 0.0989 µM) | > 100 | 0.07 (≈ 0.198 µM) | 0.08 (≈ 0.226 µM) | 0.007 (≈ 0.0198 µM)
7 | CC=CCOc1cc(NC(=S)c2ccn(C)c2C)ccc1Cl [Compound 19] | > 2 | 0.85 (≈ 2.54 µM) | ≥ 2 | 0.6 (≈ 1.79 µM) | 5.2 (≈ 15.5 µM) | 0.13 (≈ 0.388 µM) | 0.4 (≈ 1.19 µM) | 0.17 (≈ 0.508 µM)
8 | CON=Cc1cc(NC(=S)c2ccoc2C)ccc1OC [Compound 4] | 0.93 (≈ 3.06 µM) | 0.22 (≈ 0.723 µM) | 0.4 (≈ 1.31 µM) | 0.039 (≈ 0.128 µM) | > 100 | 0.59 (≈ 1.94 µM) | 0.22 (≈ 0.723 µM) | 0.007 (≈ 0.023 µM)
9 | Cc1sccc1C(=O)Nc1ccc(Cl)c(OCC2CCCC2)c1 [Compound 42] | > 2 | ≥ 2 | ≥ 2 | ≥ 2 | 5 (≈ 14.3 µM) | ≥ 2 | ≥ 2 | 0.36 (≈ 1.03 µM)
10 | CSc1sccc1C(=O)Nc1ccc(Cl)c(C=NOC(C)(C)C)c1 [Compound 36] | > 2 | 1.23 (≈ 3.21 µM) | 1.2 (≈ 3.13 µM) | 0.85 (≈ 2.22 µM) | 7.8 (≈ 20.4 µM) | 1.6 (≈ 4.18 µM) | 0.85 (≈ 2.22 µM) | 0.18 (≈ 0.47 µM)
11 | CC1=C(C(=O)Nc2ccc(Cl)c(C=NOC(C)(C)C)c2)CCCO1 [Compound 24] | > 2 | 0.48 (≈ 1.37 µM) | 0.6 (≈ 1.71 µM) | 0.5 (≈ 1.43 µM) | 9.7 (≈ 27.6 µM) | 0.33 (≈ 0.941 µM) | 0.5 (≈ 1.43 µM) | 0.13 (≈ 0.371 µM)
12 | CC(C)=CCOc1cc(NC(=O)c2ccsc2C)ccc1Cl [Compound 27] | > 2 | 0.36 (≈ 1.07 µM) | 0.5 (≈ 1.49 µM) | 0.15 (≈ 0.447 µM) | 6 (≈ 17.9 µM) | 0.46 (≈ 1.37 µM) | 0.11 (≈ 0.328 µM) | 0.01 (≈ 0.0298 µM)
